From US6403637B1, “Methods of modulating matrix metalloproteinase activity and uses thereof” (priority 1999, dated 2002)

What was measured:
human chondrocytes [1] = assay: Binding of 125I collagenase-3 to human chondrocytes; conditions: osteoarthritis chondrocytes, 10 μM b.i.d. for three days; p<0.05
Procedure: (§1) For all binding experiments, cells were seeded into 2.0 cm^2 wells. After the cells reached approximately 95% confluence, the medium was replaced with fresh medium containing 1 mg/ml BSA and the cells were assayed for binding 4 h later. The cells were first washed with maintenance medium, then incubated in the same medium with 0.01% Tween 80 containing ^125I-rat collagenase-3 or other iodinated ligands at 4° C. for 2 h. Non-specific binding was assessed by adding a 50-100-fold excess of cold ligand to half the wells, while an equivalent volume of buffer was added to the remaining wells. After incubation, the wells were washed three times with ice-cold MEM (0.5 ml). The cells were then lysed with 500 μl of 1 M NaOH and the lysates were counted on a gamma counter. Protein labeling with ^125I was done using the chloramine T method (Greenwood et al., 1963, Biochem. J. 89:114). The proteins had specific activities ranging from 9 to 27 μCi/μg.
(§2) Human tissue (articular cartilage and synovium) was obtained at surgery or autopsy and was prepared as follows. Tissue was minced in a laminar flow hood, then incubated in sterile filtered serum-free Dulbecco's modified Eagle's medium (50 ml) containing trypsin (0.25%) for 1 h at 37° C. on an orbital shaker. […]

human chondrocytes [2] = assay: Excretion of degraded (TCA-soluble) 125I-collagenase-3 from human chondrocytes; type: cell-based
Procedure: (§3) Excretion of degraded matrix metalloproteinase is preferably evaluated by performing steps (a) through (e) of the internalization assay described above, collecting the media overlying the cells after incubating for 15 min to I hr, precipitating intact proteins from the collected media (e.g., incubating for 2 hr with 20% trichloroacetic acid in ethanol and 2% bovine serum albumin), pelleting the precipitated intact proteins, and measuring the label in the supernatant (e.g., by gamma counting ^125I).
as §2
(§4) As receptor-mediated processing of collagenase-3 culminates in lysosomal degradation and extracellular release of the ligand, binding and degradation assays as above were performed and measured the presence of degraded (TCA-soluble) ^125I-collagenase-3 in the media overlying cells. […]

UMR 106-01 cells [3] = assay: Competition for 125I collagenase-3 binding in UMR 106-01 cells; set-up: species or system rat; conditions: 125I-rat collagenase-3
Procedure: as §1
These proteins were used as competitors in a series of binding assays in UMR cells using ^125I mouse collagenase-3. Radioactive labeling and binding assays were performed as in Example 1.

UMR 106-01 cells [4] = assay: Internalization assay in UMR 106-01 cells; type: cell-based, rat; set-up: reduction of intracellular accumulation of 125I-collagenase: dose or concentration left out as unconfirmed
Procedure: (§5) Although the low density lipoprotein receptor-related protein is not required for rat collagenase-3 binding to the cell, it might be required for ligand internalization. Therefore, internalization assays were performed with ^125I-rat collagenase-3 using MEF-1 and MEF-2 cells as follows. After binding 125I-rat labeled proteins as above, the cells were washed three times with cold modified Eagle's media (0.5 ml) to remove unbound ligand. The cells were then warmed to 37° C. by the addition of prewarmed modified Eagle's media (0.25 ml), and incubated at 37° C. for selected intervals. At each time point, the media were collected, and the cells were washed once with ice-cold MEM, then incubated with 0.25% Pronase®-E in modified Eagle's media for 15 min at 4° C. to strip cell surface proteins. The cell suspension was then centrifuged, and the radioactivity associated with cell pellets (defining internalized ^125I-proteins) was measured at each time point.
It is known that RAP inhibits internalization of ligands by the low density lipoprotein receptor-related protein (Kounnas et al., 1996, J. Biol. Chem 271:6523). Therefore, internalization assays were performed using ^125I-labeled rat collagenase-3 as a ligand and receptor-associated protein as a competitor. Human receptor-associated protein from the pGEX-receptor-associated protein expression vector (provided by Dr. Joachim Herz, University of Texas Southwestern Medical Center, Dallas, Tex.) was expressed in bacteria and prepared as described in Herz et al., 1991, J. Biol. Chem. 266:21232.
To investigate the mechanism by which RAP regulates internalization of collagenase-3, an experiment was performed where excess unlabeled RAP or rat collagenase-3 was prebound to UMR 106-01 cells. Binding and internalization of ^125I-labeled rat collagenase-3 and RAP were then allowed to proceed.

normal rat osteoblasts = assay: Internalization of 125I-rat collagenase-3 in normal rat osteoblasts; type: cell-based; set-up: reduction of intracellular accumulation of 125I-collagenase: dose or concentration left out as unconfirmed
Procedure: Previous work has shown that the rat collagenase-3 endocytosis receptor system is present on UMR 106-01 rat osteosarcoma cells (Omura et al, 1994, J. Biol. Chem. 269:24994). To determine whether the receptor is present in other cells, several cell types were tested for their ability to bind rat collagenase-3. These cell types were normal rat osteoblasts, rat embryo fibroblasts, the rat epithelial breast carcinoma cell line BC-1, mouse NIH 3T3 fibroblasts, the human osteosarcoma cell line SAOS-2, and the rat osteosarcoma cell lines ROS 17/2.8 and UMR 106-01. The human osteosarcoma cell line SAOS-2 (ATCC HTB 85) and the mouse embryo fibroblast cell line NIH 3T3 (ATCC CRL 1658) were cultured according to recommendations of the American Type Culture Collection, Rockville, Md. UMR 106-01 rat osteosarcoma cells were cultured as described in Roswit et al., 1992, Arch. Biochem. Biophys. […]
Although the low density lipoprotein receptor-related protein is not required for rat collagenase-3 binding to the cell, it might be required for ligand internalization. […] The cell suspension was then centrifuged, and the radioactivity associated with cell pellets (defining internalized ^125I-proteins) was measured at each time point.
The ability of receptor-associated protein to inhibit internalization of ^125I-rat collagenase-3 in UMR 106-01 osteoblastic cells and normal rat osteoblasts was determined next. […]

human chondrocytes [5] = assay: Internalization of 125I collagenase-3 by human chondrocytes; type: cell-based; conditions: p<0.001
Procedure: as §5
Human tissue (articular cartilage and synovium) was obtained at surgery or autopsy and was prepared as follows. […]
To determine whether the decreased collagenase-3 binding in osteoarthritis tissues correlated with reduced receptor function, the amount of ^125I collagenase which was internalized by osteoarthritis and control chondrocytes was determined as described in Example 1. […]

synoviocytes = assay: Internalization of 125I collagenase-3 by human synoviocytes; type: cell-based; conditions: compared to chondrocytes
Procedure: as §5, §2

human synoviocytes = assay: Excretion of degraded (TCA-soluble) 125I-collagenase-3 from human synoviocytes; type: cell-based
Procedure: as §3, §2, §4

[6] = 3 nM 125I-rat collagenase-3 + 100 nM RAP, mean ± SEM, triplicate

Row | Molecule | increase in collagenase-3 binding (human chondrocytes [1]) [%] | enhancement of excretion of degraded collagenase-3 (human chondrocytes [2]; osteoarthritis chondrocytes, 10 μM b.i.d. for three days, p<0.02) | competition with / inhibition of 125I-rat collagenase-3 binding (in words) (UMR 106-01 cells [3]) | % of maximum internalization, UMR 106-01 rat osteoblasts (UMR 106-01 cells [4]; [6]) [%] | inhibition of internalization of 125I-rat collagenase-3 (UMR 106-01 cells [4]; FIG. 10, increasing concentrations of RAP) | effect of prebound excess unlabeled protein on rat collagenase-3 internalization (UMR 106-01 cells [4]; prebound to cells) | reduction of intracellular accumulation of 125I-collagenase (UMR 106-01 cells [4]; receptor-associated protein in binding medium) [%] | % of maximum internalization, Normal rat osteoblasts (normal rat osteoblasts; [6]) [%] | reduction of intracellular accumulation of 125I-collagenase (normal rat osteoblasts; receptor-associated protein in binding medium, normal mineralizing rat osteoblasts) [%] | inhibition of collagenase-3 internalization (human chondrocytes [5]; control chondrocytes) [%] | reduction of collagenase-3 internalization (human chondrocytes [5]; osteoarthritis chondrocytes) [%] | inhibition of collagenase-3 internalization (in words) (synoviocytes) | effect on excretion of collagenase-3 (in words) (human chondrocytes [2]; chondrocytes) | effect on excretion of collagenase-3 (in words) (human synoviocytes)
1 | CC[C@H](C)C(=O)O[C@H]1C[C@H](O)C=C2C=C[C@H](C)[C@H](CC[C@@H](O)C[C@@H](O)CC(=O)[O-])[C@H]21.[Na+] [pravastatin, Pravastatin sodium] | 30 | over 320% | – | – | – | – | – | – | – | – | – | – | – | –
2 | RAP: human receptor-associated protein expressed in bacteria from the pGEX expression vector; inhibits ligand internalization by LRP | – | – | does not inhibit | 20.84 ± 1.98 | approximately 70% | inhibited | 79 | 56.99 ± 4.49 | 43 | 88.2 | 74.3 | similar | inhibited | inhibited
